Patent US10125356B2, “Enzymatic methods and enzymes” (Givaudan SA, priority 2007, dated 2018)

How the values were obtained:
[1] = system: Ax20 peptidase; test: Substrate specificity of recombinant Ax20 peptidase, cleavage by thin layer chromatography; assay type: biochemical, Corynebacterium sp. Ax20; conditions: 1 mM solution, 0.1 or 1 μg/ml peptidase, incubation 1 h
Method: The recombinant Ax20 peptidase formed as described in example 3 (affinity column purified tagged enzyme) was incubated with different compounds, in particular potential candidate dipeptide substrates, to characterize the substrate specificity and to identify substrates useful for screening assays (for example to screen for modulators including inhibitors).
The table below lists the tested compounds (mostly dipeptides indicated by their short names, e.g. ala-gly for an alanine-glycine dipeptide) and indicates whether they are cleaved by the peptidase. Z indicates a benzyloxy-carbonyl protecting group at the N-terminus of the peptide.
Cleavage was determined by thin layer chromatography.
Amounts are qualitative with (+++) indicating >80% cleavage of a 1 mM solution by 0.1 μg/ml peptidase during an incubation for 1 h; (++) indicates complete cleavage of a 1 mM solution by 1 μg/ml peptidase during an incubation for 1 h and (+) indicates partial cleavage (20-80%) of a 1 mM solution by 1 μg/ml peptidase during an incubation for 1 h and (−) indicating the absence of any cleavage.

[2] = system: K411 peptidase (SEQ ID NO: 4); test: Release of 3-sulfanyl-3-methyl-hexanol from cys-gly-conjugate by clear lysate of recombinant E. coli expressing K411 peptidase, monobromobimane fluorescence test; assay type: biochemical, Corynebacterium jeikeium K411; conditions: conjugate 1 mM
Method: (§1) Samples of each fraction were incubated both with the β-lyase and with the cys-gly-conjugate at the same time, and the release of 3-sulfanyl-3-methyl-hexanol was determined by a fluorescence test specific for free SH groups: To this end the enzyme reaction was stopped by adding 0.5 volumes of NaCO3-buffer (0.1 M, pH 8.8) containing 0.5 mM monobromobimane, thus derivatising the free thiol-group. Fluorescence was then measured on a Flex-station (Molecular devices, Sunnyvale, Calif., USA) with an excitation wavelength of 385 nm and an emission wavelength of 480 nm.
(§2) 50 ml of recombinant E. coli culture formed as described in example 3 and 4 was harvested, resuspended in a final volume of 3 ml of phosphate buffer and then disrupted with ultrasonication. The soluble extract was cleared by centrifugation. Different dilutions of the resulting extract were incubated with the cys-gly-conjugate (1 mM) and in presence as well as in absence of an excess of the β-lyase. As a negative control, clear cell lysate from E. coli transformed with an empty vector, and cell lysates with the cys-gly-conjugate but no β-lyase were used.

[3] = system: Ax20 peptidase (SEQ ID NO: 2); test: Release of 3-sulfanyl-3-methyl-hexanol from cys-gly-conjugate by clear lysate of recombinant E. coli expressing Ax20 peptidase, monobromobimane fluorescence test; assay type: biochemical, Corynebacterium sp. Ax20; conditions: conjugate 1 mM
Method: as §1, §2

[4] = system: C. sp. Ax 20 extract; test: Cleavage of conjugates by Corynebacterium sp. Ax20 cellular extract, release of 3-sulfanyl-3-methyl-hexanol by gas chromatography; assay type: biochemical; conditions: conjugate 1 mM incubated with C. sp. Ax 20 extract for 24 h
Method: The test compounds (cys-conjugate (1 mM) or cys-gly-conjugate (1 mM)) were incubated also with the wild-type strain Corynebacterium sp. Ax20 extract naturally containing the peptidase of SEQ ID NO:2. Corynebacterium sp. Ax20 cellular extract was prepared as described in example 1. The resulting extract was diluted to the same volume as the original culture has had when adjusted to an optical density of OD 4. The substrate was incubated with the extract for 24 h.
(§3) Cleavage was measured by gas chromatography to determine the release of 3-sulfanyl-3-methyl-hexanol in mM.

[5] = biological target: T1, β-lyase (Corynebacterium striatum, UniProt Q64HC5); test: Cleavage of conjugates by β-lyase, release of 3-sulfanyl-3-methyl-hexanol by gas chromatography; assay type: biochemical, Corynebacterium sp. Ax20; conditions: conjugate 1 mM incubated with β-lyase
T1 construct: made in house
T1 sequence (Q64HC5 whole entry): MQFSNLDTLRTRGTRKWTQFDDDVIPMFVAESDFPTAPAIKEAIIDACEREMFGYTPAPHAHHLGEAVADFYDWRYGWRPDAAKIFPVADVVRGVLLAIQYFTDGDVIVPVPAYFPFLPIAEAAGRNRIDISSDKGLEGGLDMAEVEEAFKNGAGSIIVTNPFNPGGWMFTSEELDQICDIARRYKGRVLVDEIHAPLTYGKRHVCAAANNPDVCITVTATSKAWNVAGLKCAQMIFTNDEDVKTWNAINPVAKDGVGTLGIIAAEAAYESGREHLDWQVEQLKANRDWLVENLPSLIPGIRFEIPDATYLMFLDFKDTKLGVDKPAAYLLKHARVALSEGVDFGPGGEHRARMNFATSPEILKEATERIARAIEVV
Method: The test compounds (Cys-conjugate (1 mM) or Cys-Gly-conjugate (1 mM)) were incubated with β-lyase.
as §3

## CCCC(C)(CCO)SC[C@H](N)C(=O)NCC(=O)O (stereo in doubt) [Cys-gly-conjugate, (1-(2-hydroxyethyl)-1-methylbutyl)-L-cysteinyl-glycine]
[1]
  Cleavage: +++ ((+++) indicating >80% cleavage of a 1 mM solution by 0.1 μg/ml peptidase during an incubation for 1 h)
[2]; K411 peptidase + β-lyase, clear cell lysate diluted 10 fold
  release of 3-sulfanyl-3-methyl-hexanol from the Cys-Gly-conjugate: 0.55 mM
[2]; K411 peptidase + β-lyase, clear cell lysate diluted 100 fold
  release of 3-sulfanyl-3-methyl-hexanol from the Cys-Gly-conjugate: 0.19 mM
[2]; K411 peptidase + β-lyase, clear cell lysate diluted 1000 fold
  release of 3-sulfanyl-3-methyl-hexanol from the Cys-Gly-conjugate: 0.03 mM
[2]; K411 peptidase w/o β-lyase, clear cell lysate diluted 10 fold
  release of 3-sulfanyl-3-methyl-hexanol from the Cys-Gly-conjugate: 0.10 mM
[2]; K411 peptidase w/o β-lyase, clear cell lysate diluted 100 fold
  release of 3-sulfanyl-3-methyl-hexanol from the Cys-Gly-conjugate: <0.01 mM
[2]; K411 peptidase w/o β-lyase, clear cell lysate diluted 1000 fold
  release of 3-sulfanyl-3-methyl-hexanol from the Cys-Gly-conjugate: <0.01 mM
[3]; Ax20 peptidase + β-lyase, clear cell lysate diluted 10 fold
  release of 3-sulfanyl-3-methyl-hexanol from the Cys-Gly-conjugate: 1.00 mM
[3]; Ax20 peptidase + β-lyase, clear cell lysate diluted 100 fold
  release of 3-sulfanyl-3-methyl-hexanol from the Cys-Gly-conjugate: 0.92 mM
[3]; Ax20 peptidase + β-lyase, clear cell lysate diluted 1000 fold
  release of 3-sulfanyl-3-methyl-hexanol from the Cys-Gly-conjugate: 0.46 mM
[3]; Ax20 peptidase w/o β-lyase, clear cell lysate diluted 10 fold
  release of 3-sulfanyl-3-methyl-hexanol from the Cys-Gly-conjugate: 0.10 mM
[3]; Ax20 peptidase w/o β-lyase, clear cell lysate diluted 100 fold
  release of 3-sulfanyl-3-methyl-hexanol from the Cys-Gly-conjugate: <0.01 mM
[3]; Ax20 peptidase w/o β-lyase, clear cell lysate diluted 1000 fold
  release of 3-sulfanyl-3-methyl-hexanol from the Cys-Gly-conjugate: <0.01 mM
[3]; Ax20 peptidase with histidine tag + β-lyase, clear cell lysate diluted 10 fold
  release of 3-sulfanyl-3-methyl-hexanol from the Cys-Gly-conjugate: 0.94 mM
[3]; Ax20 peptidase with histidine tag + β-lyase, clear cell lysate diluted 100 fold
  release of 3-sulfanyl-3-methyl-hexanol from the Cys-Gly-conjugate: 0.88 mM
[3]; Ax20 peptidase with histidine tag + β-lyase, clear cell lysate diluted 1000 fold
  release of 3-sulfanyl-3-methyl-hexanol from the Cys-Gly-conjugate: 0.36 mM
[4]
  release of 3-sulfanyl-3-methyl-hexanol from the conjugate: 0.21 mM
[5]
  release of 3-sulfanyl-3-methyl-hexanol from the conjugate: <0.03 mM
